Measured values published in patent EP4592286A1, “MACROCYCLIC NITROGEN-CONTAINING CROWN ETHER COMPOUND AND USE THEREOF AS PROTEIN KINASE INHIBITOR” (Artivila Biopharma, priority 2022, dated 2024).

What was measured:
Type in all cases: biochemical
[1] = target: JAK2 (Homo sapiens, UniProt O60674); experiment: experiment of inhibiting kinase activity (Caliper mobility shift assay), JAK2; conditions: for inhibition at 0.01 µM: at 10 nM; for inhibition at 0.01 µM / inhibition at 0.1 µM: read-out: inhibition rate JAK2; for inhibition at 0.1 µM: at 100 nM
Chain of JAK2 (O60674 whole entry): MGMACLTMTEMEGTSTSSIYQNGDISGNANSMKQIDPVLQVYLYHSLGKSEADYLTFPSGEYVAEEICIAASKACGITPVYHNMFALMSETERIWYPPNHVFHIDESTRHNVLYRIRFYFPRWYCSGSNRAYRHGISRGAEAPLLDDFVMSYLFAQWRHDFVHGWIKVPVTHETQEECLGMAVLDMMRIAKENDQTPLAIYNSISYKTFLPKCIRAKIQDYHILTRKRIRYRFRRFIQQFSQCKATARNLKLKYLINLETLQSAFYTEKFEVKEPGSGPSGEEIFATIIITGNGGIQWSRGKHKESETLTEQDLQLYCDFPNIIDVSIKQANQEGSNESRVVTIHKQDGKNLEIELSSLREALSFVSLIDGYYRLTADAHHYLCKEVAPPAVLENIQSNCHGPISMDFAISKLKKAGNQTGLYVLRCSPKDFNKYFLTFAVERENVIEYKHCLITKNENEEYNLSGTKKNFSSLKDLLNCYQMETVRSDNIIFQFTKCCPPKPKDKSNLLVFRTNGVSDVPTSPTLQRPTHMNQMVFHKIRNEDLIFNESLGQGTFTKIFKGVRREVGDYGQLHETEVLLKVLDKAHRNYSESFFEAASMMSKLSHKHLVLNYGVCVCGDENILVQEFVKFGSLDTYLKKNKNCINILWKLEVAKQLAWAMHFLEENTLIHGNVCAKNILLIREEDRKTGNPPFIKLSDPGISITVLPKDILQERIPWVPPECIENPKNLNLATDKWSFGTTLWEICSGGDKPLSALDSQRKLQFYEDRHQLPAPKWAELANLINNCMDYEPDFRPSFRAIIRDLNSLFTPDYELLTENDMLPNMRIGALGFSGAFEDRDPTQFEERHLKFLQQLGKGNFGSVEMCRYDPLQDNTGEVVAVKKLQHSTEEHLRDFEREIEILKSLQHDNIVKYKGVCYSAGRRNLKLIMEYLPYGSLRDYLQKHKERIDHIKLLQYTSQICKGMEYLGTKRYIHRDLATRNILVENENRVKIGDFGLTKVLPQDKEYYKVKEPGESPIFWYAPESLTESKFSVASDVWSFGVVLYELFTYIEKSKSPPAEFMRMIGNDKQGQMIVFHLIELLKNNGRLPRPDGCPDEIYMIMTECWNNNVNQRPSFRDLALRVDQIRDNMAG
Description: (§1) The inhibition rates of tested compounds on JAK1, JAK2, JAK3, TYK2, CDK7, CDK9, EGFR (T790M) and LRRK2 kinases were measured. The test concentrations of the compounds were 10 nM and 100 nM, and the detection was performed by replicate wells. Alternatively, compounds were 3-fold serial diluted from 10 µM for 10 concentrations in replicate wells.
(§2) The inhibitory effects of the compounds on JAK1, JAK2, JAK3, CDK7 and CDK9 kinases were detected by the method of Caliper mobility shift assay. 250 nL of the compound at 100-fold final concentration was transferred to a destination plate 384-well-plate by using a liquid handler Echo 550. A kinase solution at 2.5-fold final concentration was prepared with 1×kinase buffer. 10 µL of the kinase solution with 2.5-fold final concentration was added to compound wells and positive control wells; and 10 µL of 1×kinase buffer was added to negative control wells. The mixture was centrifuged at 1000 rpm for 30 seconds and then incubated at room temperature for 10 minutes. A mixed solution of ATP and kinase substrate at 5/3-fold final concentration was prepared with 1×kinase buffer, and 15 µL of the mixed solution of ATP and substrate at 5/3-fold final concentration was added to start the reaction. The 384-well plate was centrifuged at 1000 rpm for 30 seconds, shaked and mixed evenly, then incubated at room temperature for a corresponding time. 30 µL of stop solution was added to stop the kinase reaction, the mixture was centrifuged at 1000 rpm for 30 seconds, and shaked and mixed evenly. The conversion rate was read by Caliper EZ Reader. The conversion inhibition rate%=(average positive control conversion rate%-sample conversion rate%)/(average positive control conversion rate%-average negative control conversion rate%). Where negative control wells represent the conversion readings of the background well of kinase buffer; and positive control wells represent the conversion readings of wells without compound inhibition. With the log value of concentration as the x axis and the percentage inhibition rate as the y axis, the dose-response curve was fitted by the log (inhibitor) vs. response-variable slope of the analyzing softwar GraphPad Prism 5, and the IC50 values of each compound on enzyme activity were obtained. Calculation formula is as follows: y=Bottom+(Top-Bottom)/(1+10^((LogIC50-x)×hillslope)), where x is logarithm of inhibitor concentration; and Y is % inhibition rate.

[2] = target: T1, JAK3 (Homo sapiens, UniProt P52333); experiment: experiment of inhibiting kinase activity (Caliper mobility shift assay), JAK3; conditions: for inhibition at 0.01 µM: at 10 nM; for inhibition at 0.01 µM / inhibition at 0.1 µM: read-out: inhibition rate JAK3; for inhibition at 0.1 µM: at 100 nM
T1 sequence (P52333 1-1124): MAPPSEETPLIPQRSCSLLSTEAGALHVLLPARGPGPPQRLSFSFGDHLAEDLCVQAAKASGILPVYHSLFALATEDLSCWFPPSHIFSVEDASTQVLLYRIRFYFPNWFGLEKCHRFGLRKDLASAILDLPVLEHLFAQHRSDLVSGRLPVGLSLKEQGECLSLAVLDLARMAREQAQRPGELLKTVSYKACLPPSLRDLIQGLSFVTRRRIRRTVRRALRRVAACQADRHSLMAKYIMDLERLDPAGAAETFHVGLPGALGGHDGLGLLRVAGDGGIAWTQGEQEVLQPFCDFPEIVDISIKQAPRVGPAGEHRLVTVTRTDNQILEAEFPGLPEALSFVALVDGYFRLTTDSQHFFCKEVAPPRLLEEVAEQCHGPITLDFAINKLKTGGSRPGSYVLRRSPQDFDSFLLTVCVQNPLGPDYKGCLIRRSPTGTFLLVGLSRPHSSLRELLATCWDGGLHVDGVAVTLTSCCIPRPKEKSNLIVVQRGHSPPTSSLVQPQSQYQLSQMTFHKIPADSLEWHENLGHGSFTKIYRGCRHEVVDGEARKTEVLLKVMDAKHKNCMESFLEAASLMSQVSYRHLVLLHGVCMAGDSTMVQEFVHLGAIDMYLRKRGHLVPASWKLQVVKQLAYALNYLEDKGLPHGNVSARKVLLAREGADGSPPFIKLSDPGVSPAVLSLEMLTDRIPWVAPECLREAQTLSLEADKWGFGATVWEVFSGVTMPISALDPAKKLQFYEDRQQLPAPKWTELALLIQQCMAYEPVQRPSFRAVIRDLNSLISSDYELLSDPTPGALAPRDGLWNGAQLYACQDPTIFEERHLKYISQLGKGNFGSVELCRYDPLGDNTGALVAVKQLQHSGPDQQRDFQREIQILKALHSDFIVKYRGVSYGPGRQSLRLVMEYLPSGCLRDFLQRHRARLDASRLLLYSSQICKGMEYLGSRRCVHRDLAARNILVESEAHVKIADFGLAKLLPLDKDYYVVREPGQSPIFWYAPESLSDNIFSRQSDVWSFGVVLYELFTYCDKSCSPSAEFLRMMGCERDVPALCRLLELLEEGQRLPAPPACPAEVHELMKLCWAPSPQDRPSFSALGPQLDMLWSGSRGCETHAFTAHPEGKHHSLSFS
Description: as §1, §2

[3] = target: CDK7 (Homo sapiens, UniProt P50613); experiment: experiment of inhibiting kinase activity (Caliper mobility shift assay), CDK7; conditions: for inhibition at 0.01 µM: at 10 nM; for inhibition at 0.01 µM / inhibition at 0.1 µM: read-out: inhibition rate CDK7; for inhibition at 0.1 µM: at 100 nM; for IC50: kinase activity assay, Table 3
Description: as §1, §2

[4] = target: LRRK2 (Homo sapiens, UniProt Q5S007); experiment: experiment of inhibiting kinase activity, LRRK2; conditions: for inhibition at 0.01 µM: at 10 nM; for inhibition at 0.01 µM / inhibition at 0.1 µM: read-out: inhibition rate LRRK2; for IC50: kinase activity assay, Table 3; for inhibition at 0.1 µM: at 100 nM
Chain of LRRK2 (Q5S007 whole entry): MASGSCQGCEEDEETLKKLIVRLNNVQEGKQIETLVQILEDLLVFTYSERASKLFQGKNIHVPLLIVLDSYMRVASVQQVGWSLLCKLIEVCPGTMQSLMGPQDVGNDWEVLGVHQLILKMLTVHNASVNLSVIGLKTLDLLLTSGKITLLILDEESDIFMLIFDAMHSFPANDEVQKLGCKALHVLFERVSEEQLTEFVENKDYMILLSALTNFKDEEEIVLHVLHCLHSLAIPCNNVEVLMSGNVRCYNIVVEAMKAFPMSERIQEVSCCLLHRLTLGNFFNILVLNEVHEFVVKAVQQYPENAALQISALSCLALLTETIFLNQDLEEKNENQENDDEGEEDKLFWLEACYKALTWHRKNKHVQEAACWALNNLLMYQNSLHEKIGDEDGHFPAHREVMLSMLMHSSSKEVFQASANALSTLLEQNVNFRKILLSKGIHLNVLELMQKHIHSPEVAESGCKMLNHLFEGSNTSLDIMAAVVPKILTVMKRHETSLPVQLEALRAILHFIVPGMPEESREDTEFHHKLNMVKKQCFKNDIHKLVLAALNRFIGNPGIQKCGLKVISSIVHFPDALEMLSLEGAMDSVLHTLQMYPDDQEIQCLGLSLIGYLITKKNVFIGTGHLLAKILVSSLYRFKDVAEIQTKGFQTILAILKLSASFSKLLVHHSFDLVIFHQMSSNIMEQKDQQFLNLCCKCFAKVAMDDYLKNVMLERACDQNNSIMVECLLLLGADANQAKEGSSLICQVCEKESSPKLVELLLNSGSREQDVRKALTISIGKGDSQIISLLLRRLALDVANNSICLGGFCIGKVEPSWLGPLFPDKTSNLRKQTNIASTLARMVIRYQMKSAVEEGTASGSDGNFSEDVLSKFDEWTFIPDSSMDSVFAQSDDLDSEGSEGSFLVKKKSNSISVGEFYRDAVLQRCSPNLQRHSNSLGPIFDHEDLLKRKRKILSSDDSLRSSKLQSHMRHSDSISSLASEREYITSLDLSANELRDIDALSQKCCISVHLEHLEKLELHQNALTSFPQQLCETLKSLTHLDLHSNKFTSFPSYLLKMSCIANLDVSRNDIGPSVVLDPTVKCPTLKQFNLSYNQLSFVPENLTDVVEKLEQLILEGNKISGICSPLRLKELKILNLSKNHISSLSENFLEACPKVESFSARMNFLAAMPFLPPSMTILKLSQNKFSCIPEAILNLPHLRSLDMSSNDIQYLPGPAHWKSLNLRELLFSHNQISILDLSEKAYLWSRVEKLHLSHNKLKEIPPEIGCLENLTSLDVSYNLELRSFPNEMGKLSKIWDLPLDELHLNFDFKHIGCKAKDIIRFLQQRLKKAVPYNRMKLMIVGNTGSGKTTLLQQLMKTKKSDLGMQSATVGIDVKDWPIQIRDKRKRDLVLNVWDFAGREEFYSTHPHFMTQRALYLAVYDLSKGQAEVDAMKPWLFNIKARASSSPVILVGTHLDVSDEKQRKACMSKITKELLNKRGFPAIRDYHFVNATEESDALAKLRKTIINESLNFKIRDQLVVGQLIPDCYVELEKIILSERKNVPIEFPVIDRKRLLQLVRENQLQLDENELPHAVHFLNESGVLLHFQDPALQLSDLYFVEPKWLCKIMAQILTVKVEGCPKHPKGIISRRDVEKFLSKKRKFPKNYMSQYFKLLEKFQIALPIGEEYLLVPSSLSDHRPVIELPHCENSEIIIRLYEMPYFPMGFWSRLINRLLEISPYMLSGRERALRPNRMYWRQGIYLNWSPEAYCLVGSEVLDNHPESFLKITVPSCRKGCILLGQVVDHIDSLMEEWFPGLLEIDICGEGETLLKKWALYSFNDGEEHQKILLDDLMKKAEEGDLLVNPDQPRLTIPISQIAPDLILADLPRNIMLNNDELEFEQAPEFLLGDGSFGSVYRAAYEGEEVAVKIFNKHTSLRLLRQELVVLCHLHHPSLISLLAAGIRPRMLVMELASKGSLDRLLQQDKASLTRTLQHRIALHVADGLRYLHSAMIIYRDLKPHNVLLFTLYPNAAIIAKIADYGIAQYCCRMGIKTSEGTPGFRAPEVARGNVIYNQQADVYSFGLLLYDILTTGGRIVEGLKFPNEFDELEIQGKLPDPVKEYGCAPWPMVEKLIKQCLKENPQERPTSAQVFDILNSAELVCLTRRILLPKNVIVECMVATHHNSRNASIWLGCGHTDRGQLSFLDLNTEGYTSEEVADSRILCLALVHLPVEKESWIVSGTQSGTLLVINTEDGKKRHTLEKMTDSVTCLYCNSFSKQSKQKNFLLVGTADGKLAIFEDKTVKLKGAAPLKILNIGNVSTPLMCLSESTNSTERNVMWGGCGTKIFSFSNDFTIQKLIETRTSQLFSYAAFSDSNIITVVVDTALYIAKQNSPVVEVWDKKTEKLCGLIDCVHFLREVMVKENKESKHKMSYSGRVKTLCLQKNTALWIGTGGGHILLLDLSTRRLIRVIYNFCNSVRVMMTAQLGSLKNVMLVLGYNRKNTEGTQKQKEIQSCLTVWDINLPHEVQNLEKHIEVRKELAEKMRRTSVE
Description: as §1

[5] = target: TYK2 (Homo sapiens, UniProt P29597); experiment: experiment of inhibiting kinase activity, TYK2; conditions: read-out: inhibition rate TYK2; for inhibition at 0.1 µM: at 100 nM
Chain of TYK2 (P29597 whole entry): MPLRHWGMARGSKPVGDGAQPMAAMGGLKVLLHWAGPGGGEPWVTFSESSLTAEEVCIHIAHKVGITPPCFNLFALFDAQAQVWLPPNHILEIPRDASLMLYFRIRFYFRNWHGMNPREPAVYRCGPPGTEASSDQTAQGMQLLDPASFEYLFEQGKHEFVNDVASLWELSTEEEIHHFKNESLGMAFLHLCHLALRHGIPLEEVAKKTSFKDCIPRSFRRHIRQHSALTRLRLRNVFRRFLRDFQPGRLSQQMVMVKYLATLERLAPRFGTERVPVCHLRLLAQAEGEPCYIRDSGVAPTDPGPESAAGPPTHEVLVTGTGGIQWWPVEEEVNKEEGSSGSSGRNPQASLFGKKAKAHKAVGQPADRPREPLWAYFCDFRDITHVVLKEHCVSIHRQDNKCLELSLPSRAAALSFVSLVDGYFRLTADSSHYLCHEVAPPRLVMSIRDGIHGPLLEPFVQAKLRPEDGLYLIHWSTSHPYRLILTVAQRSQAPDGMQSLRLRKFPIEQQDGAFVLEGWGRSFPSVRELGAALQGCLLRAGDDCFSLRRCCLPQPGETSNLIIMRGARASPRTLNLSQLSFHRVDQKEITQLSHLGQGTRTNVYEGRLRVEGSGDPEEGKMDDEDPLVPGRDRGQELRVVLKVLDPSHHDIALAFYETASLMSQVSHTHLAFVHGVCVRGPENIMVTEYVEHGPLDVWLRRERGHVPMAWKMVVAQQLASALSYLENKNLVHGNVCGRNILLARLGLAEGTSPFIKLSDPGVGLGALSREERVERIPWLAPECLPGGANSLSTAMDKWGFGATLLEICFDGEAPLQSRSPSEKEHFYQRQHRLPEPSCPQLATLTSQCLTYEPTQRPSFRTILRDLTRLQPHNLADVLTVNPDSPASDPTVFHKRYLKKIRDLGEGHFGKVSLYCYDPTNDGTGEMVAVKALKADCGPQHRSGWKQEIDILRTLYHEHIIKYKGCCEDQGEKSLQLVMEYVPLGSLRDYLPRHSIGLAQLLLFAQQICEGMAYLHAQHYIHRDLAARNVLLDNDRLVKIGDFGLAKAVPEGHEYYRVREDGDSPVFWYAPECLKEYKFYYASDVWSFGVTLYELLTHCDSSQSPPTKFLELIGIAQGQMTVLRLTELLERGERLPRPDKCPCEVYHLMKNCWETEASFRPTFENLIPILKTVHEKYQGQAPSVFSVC
Description: as §1

Compound | inhibition at 0.01 µM [1] | inhibition at 0.01 µM [2] | inhibition at 0.01 µM [3] | inhibition at 0.01 µM [4] | IC50 [4] | inhibition at 0.1 µM [2] | IC50 ([2]; kinase activity assay, Table 3) | inhibition at 0.1 µM [5] | inhibition at 0.1 µM [3] | inhibition at 0.1 µM [1] | IC50 ([1]; kinase activity assay, Table 3) | IC50 [3] | inhibition at 0.1 µM [4] | inhibition at 0.01 µM ([5]; at 10 nM)
CC(=O)N1CCOCCOc2cc(Nc3nc(Nc4ccccc4S(=O)(=O)C(C)C)c4cc[nH]c4n3)ccc2OCC1 [Example 98, 1-(13-((4-((2-(isopropylsulfonyl)phenyl)amino)-7H-pyrrolo[2,3-d]pyrimidin-2-yl)amino)-2,3,5,6,8,9-hexahydro-7H-benzo[b][1,4,7]trioxa[10]azacyclododecan-7-yl)ethan-1-one] | 40 to 79% | 40 to 79% | 25 to 39% | > 80% | < 50 nM |  |  |  |  |  |  |  |  | 
CN1CCOc2ccc(Nc3nc(-c4ccc(C(=O)NCC#N)cc4)c4cc[nH]c4n3)cc2OCC1 [Example 2] |  |  |  |  |  | > 80% | < 50 nM | > 80% | 25 to 39% |  |  |  |  | 
CN1CCOCCOc2ccc(Nc3nc(Nc4cccc(S(=O)(=O)NC(C)(C)C)c4)c4cc[nH]c4n3)cc2OCC1 [Example 19, N-(tert-butyl)-3-((2-((7-methyl-2,3,6,7,8,9-hexahydro-5H-benzo[b][1,4,7]trioxa[10]azacyclododecan-12-yl)amino)-7H-pyrrolo[2,3-d]pyrimidin-4-yl)amino)benzenesulfonamide] | 40 to 79% |  |  | 40 to 79% | < 50 nM | 40 to 79% |  | 25 to 39% | 40 to 79% | > 80% | < 50 nM | < 50 nM | > 80% | 
CC(C)S(=O)(=O)c1ccccc1Nc1nc(Nc2ccc3c(c2)OCCN(C)CCOCCO3)nc2[nH]ncc12 [Example 12, N^4-(2-(isopropylsulfonyl)phenyl)-N^6-(7-methyl-2,3,6,7,8,9-hexahydro-5H-benzo[b][1,4, 7]trioxa[10]azacyclododecan-12-yl)-1H-pyrazolo[3,4-d]pyrimidin-4,6-diamine] |  |  | 40 to 79% | 25 to 39% | < 50 nM | 25 to 39% |  |  | > 80% | 40 to 79% |  | < 50 nM | > 80% | 
CN1CCOCCOc2cc(Nc3nc(-c4cn(C)c5ccccc45)c4cn[nH]c4n3)ccc2OCC1 [Example 24, 7-methyl-N-(4-(1-methyl-1H-indol-3-yl)-1H-pyrazolo[3,4-d]pyrimidin-6-yl)-2,3,6,7,8,9-hexahydro-5H-benzo[b][1,4,7]trioxa[10]azacyclododecan-13-amine] |  |  |  |  |  |  |  |  | 40 to 79% | 40 to 79% |  |  | 25 to 39% | 
CN1CCOCCOc2cc(Nc3nc(-c4cn(C)c5ccccc45)c4cc[nH]c4n3)ccc2OCC1 [Example 23, 7-methyl-N-(4-(1-methyl-1H-indol-3-yl)-7H-pyrrolo[2,3-d]pyrimidin-2-yl)-2,3,6,7,8,9-hexahydro-5H-benzo[b][1,4,7]trioxa[10]azacyclododecan-13-amine] |  |  |  |  |  | 40 to 79% |  | 25 to 39% | 40 to 79% | > 80% |  |  | 40 to 79% | 
CC(C)S(=O)(=O)c1ccccc1Nc1nc(Nc2ccc3c(c2)OCCN(C)CCOCCO3)nc2[nH]ccc12 [Example 53, N^4-(2-(isopropylsulfonyl)phenyl)-N^2-(7-methyl-2,3,6,7,8,9-hexahydro-5H-benzo[b][1,4,7]trioxa[10]azacyclododecan-12-yl)-7H-pyrrolo[2,3-d]pyrimidin-2,4-diamine] | 40 to 79% | 40 to 79% | > 80% | > 80% |  |  |  |  |  |  |  |  |  | 
CN1CCOCCOc2cc(Nc3nc(Nc4ccccc4P(C)(C)=O)c4cn[nH]c4n3)ccc2OCC1 [Example 33, dimethyl(2-((6-((7-methyl-2,3,6,7,8,9-hexahydro-5H-benzo[b][1,4,7]trioxa[10]azacyclododecan-13-yl)amino)-1H-pyrazolo[3,4-d]pyrimidin-4-yl)amino)phenyl)phosphine oxide] |  | 25 to 39% |  | > 80% | < 50 nM | > 80% |  |  | 40 to 79% | 40 to 79% |  |  | > 80% | 
CC(C)S(=O)(=O)c1ccccc1Nc1nc(Nc2ccc3c(c2)OCCN(C)CCO3)nc2[nH]ncc12 [Example 36, N^4-(2-(isopropylsulfonyl)phenyl)-N^6-(4-methyl-3,4,5,6-tetrahydro-2H-benzo[b] [1,4,7]dioxazolin-9-yl)-1H-pyrazolo[3,4-d]pyrimidin-4,6-diamine] |  |  |  |  | < 50 nM | 25 to 39% |  |  | 40 to 79% | 40 to 79% |  |  | > 80% | 
CN1CCOc2ccc(Nc3nc(-c4cn(C)c5ccccc45)c4cc[nH]c4n3)cc2OCC1 [Example 39, 4-methyl-N-(4-(1-methyl-1H-indol-3-yl)-7H-pyrrolo[2,3-d]pyrimidin-2-yl)-3,4,5,6-tetrahydro-2H-benzo[b][1,4,7]dioxazolin-9-amine] |  |  |  |  | < 50 nM |  |  |  | 25 to 39% | 40 to 79% |  |  | 40 to 79% | 
CN1CCOCCOc2cc(Nc3nc(Nc4cccc(S(N)(=O)=O)c4)c4cc[nH]c4n3)ccc2OCC1 [Example 67, 3-((2-((7-methyl-2,3,6,7,8,9-hexahydro-5H-benzo[b][1,4,7]trioxa[10]azacyclododecan-13-yl)amino)-7H-pyrrolo[2,3-d]pyrimidin-4-yl)amino)benzenesulfonamide] |  |  |  |  |  | 25 to 39% |  |  | 40 to 79% | 40 to 79% |  |  | > 80% | 
CN1CCOCCOc2ccc(Nc3ncc(F)c(-c4cnn(C(CC#N)C5CCCC5)c4)n3)cc2OCC1 (centres unmarked) [Example 42, 3-cyclopentyl-3-(4-(5-fluoro-2-((7-methyl-2,3,6,7,8,9-hexahydro-5H-benzo[b][1,4,7]trioxa[10]azacyclododecan-12-yl)amino)pyrimidin-4-yl)-1H-pyrazol-1-yl)propanenitrile] | > 80% |  | 25 to 39% |  |  |  |  |  |  |  |  |  |  | > 80%
